{"source": "patent US6924099B1", "about": "“Biomarkers and assays for carcinogenesis” (G.D. Searle & Co., priority 1999, dated 2005)", "key": {"rat liver mRNA [1]": {"system": "rat liver mRNA", "assay": "Validation of AFLP biomarkers by rt-PCR (Taqman) in liver of phenobarbital-treated rats", "format": "in vivo", "details": "for Fold Change 2-week: 2 weeks phenobarbital; for Fold Change 13-week: 13 weeks phenobarbital 200 mg/kg oral gavage", "procedure": "After AFLP experiments were conducted, and results analyzed, the effects of phenobarbital on the expression of several biomarkers were validated. RNA was extracted from the same liver samples used in the AFLP study, in addition to liver samples from rats treated with phenobarbital for 2-weeks, followed by reverse transcription reactions to generate cDNA, followed by PCR, using Taqman technology. The genes analyzed for phenobarbital-induced alterations, and the corresponding AFLP sequence numbers are listed in Table 5, and a graph and a chart of the actual results are in Table 6 and FIG. 1.\nEleven of the 17 (65%) genes analyzed were also determined to be differentially expressed using rt-PCR. However, this is based on comparisons at the same timepoint (13 weeks). When the rt-PCR analyses performed on the 2 week samples are considered, another marker (S-033) is found to be differentially expressed. Theoretically, differences in sensitivity and or specificity between the two techniques could be accounted for these minor discrepancies. However, S-033 is an example of how AFLP has identified biomarkers which are optimal for carcinogen detection at timepoints other than 13 weeks."}, "[2]": {"system": "cellular mRNAs in rat liver", "assay": "AFLP-based Transcript Imaging of liver mRNAs of phenobarbital-treated rats", "format": "in vivo", "details": "for Fold Change AFLP: 13 weeks phenobarbital 200 mg/kg oral gavage", "procedure": "Rats were treated with phenobarbital for thirteen weeks or in a separate experiment, for 5 days. Liver mRNAs were extracted and probed for those mRNAs specifically altered by phenobarbital treatment by comparing with mRNA expression in untreated rats. The relative abundance of cellular mRNAs in rat liver was determined using PE GenScope's AFLP (Amplified Fragment Length Polymorphism)-based Transcript Imaging technology. The mRNA is converted into double-stranded cDNA, which is then cut with restriction enzymes. The resulting restriction fragments are tagged with specific adapters of known sequences, which allows for subsequent amplification of the fragments under highly stringent conditions. Similar technology has been used in plants (Money. T. et al., Nucleic Acids Res. 24:2616-2617 (1996), incorporated by reference in its entirety)."}, "rat liver mRNA [3]": {"system": "rat liver mRNA", "assay": "RT-PCR of mRNAs for three phenobarbital-induced genes", "details": "oral gavage 200 mg/kg, 88 days or 5 days", "procedure": "Specifically, rats were treated by oral gavage for 88 days in the 13 week experiment, or for 5 days with 200 mg/kg phenobarbital or control vehicle."}, "[4]": {"details": "SEQ NO. 4 (Rat aldehyde dehydrogenase) mRNA"}, "[5]": {"details": "SEQ NO. 10 (Rat vitamin D-binding protein) mRNA"}, "[6]": {"details": "SEQ NO. 25 (Rat cytochrome B) mRNA"}, "[7]": {"details": "SEQ NO. 34 (Rat liver catalase) mRNA"}, "[8]": {"details": "SEQ NO. 38 (Rat alpha-2u globulin) mRNA"}, "[9]": {"details": "SEQ NO. 40 (Rat NADP-dep.isocitrate dehydrogenase) mRNA"}, "[10]": {"details": "SEQ NO. 42 (Mouse JAK1 (protein tyrosine kinase)) mRNA"}, "[11]": {"details": "SEQ NO. 46 (Rat cathepsin B) mRNA"}, "[12]": {"details": "SEQ NO. 52 ((s)-2-hydroxy acid oxidase) mRNA"}, "[13]": {"details": "SEQ NO. 92 (Rat nicotinic receptor alpha 7 subunit) mRNA"}, "[14]": {"details": "SEQ NO. 114 (Rat delta-aminolevulinate synthase) mRNA"}, "[15]": {"details": "SEQ NO. 116 (Estrogen sulfotransferase) mRNA"}, "[16]": {"details": "SEQ NO. 129 (Glutathione S-transferase) mRNA"}, "[17]": {"details": "SEQ NO. 230 (Rat carboxylesterase) mRNA"}}, "data": [{"smiles": "CCC1(c2ccccc2)C(=O)NC(=O)NC1=O", "note": "[phenobarbital]", "values": [{"measurement": "Fold Change 2-week", "setting": "rat liver mRNA [1]; SEQ NO. 3 (Rat P-450) mRNA", "value": 1.34, "unit": "fold"}, {"measurement": "Fold Change 13-week", "setting": "rat liver mRNA [1]; SEQ NO. 3 (Rat P-450) mRNA", "value": 1.85, "unit": "fold"}, {"measurement": "Fold Change 2-week", "setting": "rat liver mRNA [1]; [4]", "value": 16.36, "unit": "fold"}, {"measurement": "Fold Change 13-week", "setting": "rat liver mRNA [1]; [4]", "value": 12.88, "unit": "fold"}, {"measurement": "Fold Change 2-week", "setting": "rat liver mRNA [1]; SEQ NO. 6 (Rat UDPGT1.1) mRNA", "value": 0.93, "unit": "fold"}, {"measurement": "Fold Change 13-week", "setting": "rat liver mRNA [1]; SEQ NO. 6 (Rat UDPGT1.1) mRNA", "value": 1.5, "unit": "fold"}, {"measurement": "Fold Change 2-week", "setting": "rat liver mRNA [1]; [5]", "value": 0.66, "unit": "fold"}, {"measurement": "Fold Change 13-week", "setting": "rat liver mRNA [1]; [5]", "value": 0.79, "unit": "fold"}, {"measurement": "Fold Change 2-week", "setting": "rat liver mRNA [1]; [6]", "value": 1.85, "unit": "fold"}, {"measurement": "Fold Change 13-week", "setting": "rat liver mRNA [1]; [6]", "value": 0.75, "unit": "fold"}, {"measurement": "Fold Change 2-week", "setting": "rat liver mRNA [1]; [7]", "value": 0.79, "unit": "fold"}, {"measurement": "Fold Change 13-week", "setting": "rat liver mRNA [1]; [7]", "value": 0.45, "unit": "fold"}, {"measurement": "Fold Change 2-week", "setting": "rat liver mRNA [1]; [8]", "value": 0.35, "unit": "fold"}, {"measurement": "Fold Change 13-week", "setting": "rat liver mRNA [1]; [8]", "value": 0.03, "unit": "fold"}, {"measurement": "Fold Change 2-week", "setting": "rat liver mRNA [1]; [9]", "value": 0.88, "unit": "fold"}, {"measurement": "Fold Change 13-week", "setting": "rat liver mRNA [1]; [9]", "value": 1.14, "unit": "fold"}, {"measurement": "Fold Change 2-week", "setting": "rat liver mRNA [1]; [10]", "value": 0.8, "unit": "fold"}, {"measurement": "Fold Change 13-week", "setting": "rat liver mRNA [1]; [10]", "value": 0.83, "unit": "fold"}, {"measurement": "Fold Change 2-week", "setting": "rat liver mRNA [1]; [11]", "value": 0.87, "unit": "fold"}, {"measurement": "Fold Change 13-week", "setting": "rat liver mRNA [1]; [11]", "value": 1.41, "unit": "fold"}, {"measurement": "Fold Change 2-week", "setting": "rat liver mRNA [1]; [12]", "value": 0.31, "unit": "fold"}, {"measurement": "Fold Change 13-week", "setting": "rat liver mRNA [1]; [12]", "value": 0.09, "unit": "fold"}, {"measurement": "Fold Change 2-week", "setting": "rat liver mRNA [1]; [13]", "value": 0.45, "unit": "fold"}, {"measurement": "Fold Change 13-week", "setting": "rat liver mRNA [1]; [13]", "value": 0.72, "unit": "fold"}, {"measurement": "Fold Change 2-week", "setting": "rat liver mRNA [1]; [14]", "value": 1.22, "unit": "fold"}, {"measurement": "Fold Change 13-week", "setting": "rat liver mRNA [1]; [14]", "value": 4.03, "unit": "fold"}, {"measurement": "Fold Change 2-week", "setting": "rat liver mRNA [1]; [15]", "value": 0.81, "unit": "fold"}, {"measurement": "Fold Change 13-week", "setting": "rat liver mRNA [1]; [15]", "value": 0.15, "unit": "fold"}, {"measurement": "Fold Change 2-week", "setting": "rat liver mRNA [1]; [16]", "value": 2.52, "unit": "fold"}, {"measurement": "Fold Change 13-week", "setting": "rat liver mRNA [1]; [16]", "value": 4.03, "unit": "fold"}, {"measurement": "Fold Change 2-week", "setting": "rat liver mRNA [1]; SEQ NO. 179 (Rat UDPGT) mRNA", "value": 14.11, "unit": "fold"}, {"measurement": "Fold Change 13-week", "setting": "rat liver mRNA [1]; SEQ NO. 179 (Rat UDPGT) mRNA", "value": 9.05, "unit": "fold"}, {"measurement": "Fold Change 2-week", "setting": "rat liver mRNA [1]; [17]", "value": 4.24, "unit": "fold"}, {"measurement": "Fold Change 13-week", "setting": "rat liver mRNA [1]; [17]", "value": 5.74, "unit": "fold"}, {"measurement": "Down-regulation of the sequences of Table 3 (SEQ NO 419-457)", "setting": "[2]; 5 weeks of treatment", "value": "at least 1.7 fold"}, {"measurement": "Up-regulation of the sequences of Table 4 (SEQ NO 458-489)", "setting": "[2]; 5 weeks of treatment", "value": "at least 1.7 fold"}, {"measurement": "Down-regulation of the sequences of Table 1 (SEQ NO 275-318)", "setting": "[2]; 13 weeks of treatment", "value": "at least 1.7 fold"}, {"measurement": "Up-regulation of the sequences of Table 2 (SEQ NO 319-418)", "setting": "[2]; 13 weeks of treatment", "value": "at least 1.7 fold"}, {"measurement": "Fold Change AFLP", "setting": "[2]; SEQ NO. 3 (Rat P-450) mRNA", "value": 2.3, "unit": "fold"}, {"measurement": "Fold Change AFLP", "setting": "[2]; [4]", "value": 8.2, "unit": "fold"}, {"measurement": "Fold Change AFLP", "setting": "[2]; SEQ NO. 6 (Rat UDPGT1.1) mRNA", "value": 4.6, "unit": "fold"}, {"measurement": "Fold Change AFLP", "setting": "[2]; [5]", "value": 1.7, "unit": "fold"}, {"measurement": "Fold Change AFLP", "setting": "[2]; [6]", "value": 4.2, "unit": "fold"}, {"measurement": "Fold Change AFLP", "setting": "[2]; [7]", "value": 16, "unit": "fold"}, {"measurement": "Fold Change AFLP", "setting": "[2]; [8]", "value": 0.04, "unit": "fold"}, {"measurement": "Fold Change AFLP", "setting": "[2]; [9]", "value": 2.5, "unit": "fold"}, {"measurement": "Fold Change AFLP", "setting": "[2]; [10]", "value": 1.9, "unit": "fold"}, {"measurement": "Fold Change AFLP", "setting": "[2]; [11]", "value": 2.3, "unit": "fold"}, {"measurement": "Fold Change AFLP", "setting": "[2]; [12]", "value": 0.3, "unit": "fold"}, {"measurement": "Fold Change AFLP", "setting": "[2]; [13]", "value": 6.3, "unit": "fold"}, {"measurement": "Fold Change AFLP", "setting": "[2]; [14]", "value": 3.8, "unit": "fold"}, {"measurement": "Fold Change AFLP", "setting": "[2]; [15]", "value": 0.32, "unit": "fold"}, {"measurement": "Fold Change AFLP", "setting": "[2]; [16]", "value": 4, "unit": "fold"}, {"measurement": "Fold Change AFLP", "setting": "[2]; SEQ NO. 179 (Rat UDPGT) mRNA", "value": 10.5, "unit": "fold"}, {"measurement": "Fold Change AFLP", "setting": "[2]; [17]", "value": 1.3, "unit": "fold"}, {"measurement": "Average expression level of P450 2B1 mRNA as compared to control rats", "setting": "rat liver mRNA [3]", "value": "substantial induction"}]}]}
